Measured values reported in the NIST ThermoML archive (doi:10.1021/acs.jced.6b00686).
± gives the expanded uncertainty stated by the source.

Test: refractive index (Na D-line) (dimensionless)
Settings: 293.15 K; 101.3 kPa; Liquid; Standard Abbe refractometry

SMILES	refractive index
O=C(O)CS [2-mercaptoacetic acid]	1.5027 ± 0.0005
CC(=O)OCC(C)C [2-methylpropyl ethanoate]	1.3905 ± 0.0005
CCCCOC(C)=O [butyl ethanoate]	1.394 ± 0.0005

Now from value to compound:

refractive index	SMILES
1.3887 ± 0.0005	CCCCOC=O [butyl methanoate]
1.3327 ± 0.0005	O [water]
